The source of these data is publication doi:10.1101/2024.06.25.600598v1 (biorxiv, 2024).

Structures can show the parent of a compound that is named as a salt. Where two headings read alike, the source gives them in different places.

Assay [1] deals with T1, fibroblast activation protein (FAP; rhFAP, SLIN-tagged hFAP) (Homo sapiens, UniProt Q12884).
T1 sequence (Q12884 35-760): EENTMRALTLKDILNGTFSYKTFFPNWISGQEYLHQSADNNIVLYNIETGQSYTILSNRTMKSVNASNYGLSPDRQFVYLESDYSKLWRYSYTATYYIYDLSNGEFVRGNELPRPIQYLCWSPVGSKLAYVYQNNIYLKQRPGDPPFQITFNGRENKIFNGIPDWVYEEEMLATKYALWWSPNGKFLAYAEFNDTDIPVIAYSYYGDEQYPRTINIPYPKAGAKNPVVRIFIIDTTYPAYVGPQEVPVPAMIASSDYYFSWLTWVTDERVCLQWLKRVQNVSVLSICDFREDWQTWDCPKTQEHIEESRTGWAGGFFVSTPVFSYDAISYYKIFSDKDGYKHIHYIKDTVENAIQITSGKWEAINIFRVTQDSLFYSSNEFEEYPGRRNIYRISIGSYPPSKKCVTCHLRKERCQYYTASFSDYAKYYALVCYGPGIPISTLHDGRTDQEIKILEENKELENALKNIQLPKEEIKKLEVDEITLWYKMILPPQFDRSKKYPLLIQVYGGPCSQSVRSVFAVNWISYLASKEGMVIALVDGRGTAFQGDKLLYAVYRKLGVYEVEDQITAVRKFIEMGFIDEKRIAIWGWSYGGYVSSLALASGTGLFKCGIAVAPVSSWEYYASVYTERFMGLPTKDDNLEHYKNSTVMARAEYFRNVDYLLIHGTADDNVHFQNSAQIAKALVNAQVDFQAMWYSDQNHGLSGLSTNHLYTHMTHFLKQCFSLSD
Nature of the assay: biochemical.

Assay [2] deals with T1, fibroblast activation protein (FAP; rhFAP, SLIN-tagged hFAP). To be noted: 2 µM; inhibitor.
Assay [3] has the same target. Nature of the assay: biochemical. In kind it is binding.
Assay [4] has the same target. Put plainly: biochemical. This is another data set of the same source.

In general, Ki refers to the dissociation constant of the complex between target and ligand, obtained from inhibition or displacement. Low values mean higher affinity, high ones lower affinity. On to `CCN1CCN(C(=O)N[C@@H](C(=O)N[C@@H]2C(=O)N3C(C(=O)O)=C(CSc4nnnn4C)CS[C@H]23)c2ccc(O)cc2)C(=O)C1=O` [Cefoperazone (sodium salt)], for which, in assay [1], the inhibition constant Ki was 3.9 µM. Moreover, the “Relative inhibition (%), activity assay” value in assay [2] turned out to be 25%.
On the same counts, the results for `C[n+]1cc2c3c(ccc2c2ccc4cc5c(cc4c21)OCO5)OCO3` [Sanguinarine (chloride)] are 7.2 µM and 13%.
`C=CC1=C(C)C2=Cc3c(C=C)c(C)c4[n]3[Fe]([Cl])[n]3c(c(C)c(CCC(=O)O)c3=CC3=NC(=C4)C(C)=C3CCC(=O)O)=CC1=N2` [hemin] displayed an inhibitory constant (Ki) in assay [3] of 0.6 µM.
With `COc1ccc2nc3cc(Cl)ccc3c(Nc3cc(CN4CCCC4)c(O)c(CN4CCCC4)c3)c2n1` [Pyronaridine (tetraphosphate)], the affinity in assay [1] corresponds to a Ki of 7.1 µM. The “Relative inhibition (%), activity assay” value in assay [2] is 19%.
In assay [1], `CC1(C)C(/C=C/C=C/C=C/C=C2\N(CCCCS(=O)(=O)O)c3ccc4ccccc4c3C2(C)C)=[N+](CCCCS(=O)(=O)[O-])c2ccc3ccccc3c21` [Indocyanine green] registered a Ki of 4.1 µM. Moreover, the “Relative inhibition (%), activity assay” value in assay [2] is listed as 20%.
For the compound `CCN(c1cc(-c2ccc(CN3CCOCC3)cc2)cc(C(=O)NCc2c(C)cc(C)[nH]c2=O)c1C)C1CCOCC1` [Tazemetostat (hydrobromide)], in assay [1], the Ki was found to be 8.7 µM. Also, the “Relative inhibition (%), activity assay” value in assay [2] turned out to be 22%.
In the same order, the values of `C=Cc1c(C)c2cc3nc(c(CC(=O)N[C@@H](CC(=O)O)C(=O)O)c4[nH]c(cc5nc(cc1[nH]2)C(C)=C5CC)c(C)c4C(=O)O)[C@@H](CCC(=O)O)[C@@H]3C` [Talaporfin (sodium)] are 3 µM and 12%.
On the same counts, the results for `CN1CCN(c2ccc(Nc3ncc4cc5n(c4n3)C3(CCCCC3)CNC5=O)nc2)CC1` [Trilaciclib (hydrochloride)] are 5.9 µM and 19%.
In the same order, the values of `CC(=C(CCOC(=O)C(C)C)SSC(CCOC(=O)C(C)C)=C(C)N(C=O)Cc1cnc(C)nc1N)N(C=O)Cc1cnc(C)nc1N` (stereo in doubt) [Sulbutiamine] are 5.8 µM and 15%.
Take `CC(=O)[C@]1(O)Cc2c(O)c3c(c(O)c2[C@@H](O[C@H]2C[C@H](N)[C@H](O)[C@H](C)O2)C1)C(=O)c1ccccc1C3=O` [Idarubicin (hydrochloride)]: the Ki in assay [1] came to 3.6 µM. Further, in assay [2], the “Relative inhibition (%), activity assay” value turned out to be 19%.
`CCOc1nc2cccc(C(=O)OCc3oc(=O)oc3C)c2n1Cc1ccc(-c2ccccc2-c2noc(=O)[nH]2)cc1` [Azilsartan medoxomil] gave a Ki in assay [1] of 3.9 µM. Besides, the “Relative inhibition (%), activity assay” value in assay [2] worked out at 11%.
The compound `CC(=O)OCC1=C(C(=O)O)N2C(=O)[C@@H](NC(=O)CSc3ccncc3)[C@H]2SC1` [Cephapirin (sodium)] gave a Ki in assay [1] of 7.6 µM. For the same compound, the “Relative inhibition (%), activity assay” value in assay [2] amounted to 18%.
In the same order, the values of `CNC(=O)c1ccc(-c2cnc3ncc(Cc4ccc5ncccc5c4)n3n2)cc1F` [Capmatinib] are 3.3 µM and 27%.
In assay [1], `Cc1ccc(C(=O)Nc2ccc(S(=O)(=O)O)c3cc(S(=O)(=O)O)cc(S(=O)(=O)O)c23)cc1NC(=O)c1cccc(NC(=O)Nc2cccc(C(=O)Nc3cc(C(=O)Nc4ccc(S(=O)(=O)O)c5cc(S(=O)(=O)O)cc(S(=O)(=O)O)c45)ccc3C)c2)c1` [Suramin (sodium salt)] had a Ki of 9.1 µM. Besides, the “Relative inhibition (%), activity assay” value in assay [2] stood at 12%.
Consider `CCOc1ccc(Nc2ccc(/C(=C3/C=CC(=[N+](CC)Cc4cccc(S(=O)(=O)[O-])c4)C=C3C)c3ccc(N(CC)Cc4cccc(S(=O)(=O)O)c4)cc3C)cc2)cc1` [Brilliant blue G-250], for which the Ki in assay [1] is 0.9 µM. The “Relative inhibition (%), activity assay” value in assay [2] was found to be 28%.
On the same counts, the results for `COc1cccc2c1C(=O)c1c(O)c3c(c(O)c1C2=O)C[C@@](O)(C(C)=O)C[C@@H]3O[C@H]1C[C@H](N)[C@H](O)[C@H](C)O1` [Daunorubicin (hydrochloride)] are 6.4 µM and 23%.
On the same counts, the results for `CCC1=C(C)CN(C(=O)NCCc2ccc(S(=O)(=O)NC(=O)N[C@H]3CC[C@H](C)CC3)cc2)C1=O` [Glimepiride] are 8.8 µM and 16%.
In the same order, the values of `CCc1c(Cl)c(O)c(Cl)c(O)c1C(=O)O[C@H]1[C@H](O)[C@H](OC)[C@H](OC/C2=C\C=C\C[C@H](O)/C(C)=C/[C@H](CC)[C@@H](O[C@@H]3OC(C)(C)[C@@H](OC(=O)C(C)C)[C@H](O)[C@@H]3O)/C(C)=C/C(C)=C/C[C@@H]([C@@H](C)O)OC2=O)O[C@@H]1C` [Fidaxomicin] are 6.9 µM and 10%.
Compound `CCN1CCN(Cc2ccc(Nc3ncc(F)c(-c4cc(F)c5nc(C)n(C(C)C)c5c4)n3)nc2)CC1` [Abemaciclib (methanesulfonate)] gave a Ki in assay [1] of 0.8 µM. Moreover, the “Relative inhibition (%), activity assay” value in assay [2] is 5%.
Take `COc1cccc2c1C(=O)c1c(O)c3c(c(O)c1C2=O)C[C@@](O)(C(=O)CO)C[C@@H]3O[C@H]1C[C@H](N)[C@H](O[C@@H]2CCCCO2)[C@H](C)O1` [Pirarubicin (Hydrochloride)]: the Ki in assay [1] was 0.6 µM. For the same compound, the “Relative inhibition (%), activity assay” value in assay [2] was found to be 19%.
In assay [1], `CC/C=C\C/C=C\C/C=C\C/C=C\C/C=C\C/C=C\CCC(=O)O` [Docosahexaenoic acid] had a Ki of 5.5 µM. The “Relative inhibition (%), activity assay” value in assay [2] was found to be 10%.
In the case of `COc1cc2/c(=N/c3ccc(Br)cc3F)nc[nH]c2cc1OCC1CCN(C)CC1` [Vandetanib], in assay [1], affinity was put at a Ki of 9.4 µM. Also, in assay [2], the “Relative inhibition (%), activity assay” value is 29%.
In the same order, the values of `CCCC(=O)OCOC(=O)C1=C(C)NC(C)=C(C(=O)OC)C1c1cccc(Cl)c1Cl` (stereo not shown) [Clevidipine] are 1.7 µM and 35%.
On to `Cc1cc(-c2ccc(/N=N/c3ccc4c(S(=O)(=O)O)cc(S(=O)(=O)O)c(N)c4c3O)c(C)c2)ccc1/N=N/c1ccc2c(S(=O)(=O)O)cc(S(=O)(=O)O)c(N)c2c1O` [Evans Blue], for which the Ki in assay [1] was determined as 5.7 µM. Besides, the “Relative inhibition (%), activity assay” value in assay [2] turned out to be 21%.
In the same order, the values of `COc1ccc(-c2cc(=O)c3c(O)c(OC)c(O)cc3o2)cc1OC` [Eupatilin] are 2 µM and 16%.
Compound `Cc1ccc(NC(=O)C2(c3ccc4c(c3)OC(F)(F)O4)CC2)nc1-c1cccc(C(=O)O)c1` [Lumacaftor] registered an inhibitory constant (Ki) in assay [4] of 10.1 µM.
Compound `CCOC(=O)n1ccn(C)c1=S` [Carbimazole] came in with a Ki in assay [1] of 7.9 µM. For the same compound, the “Relative inhibition (%), activity assay” value in assay [2] is recorded as 26%.
On the same counts, the results for `Cc1cnc(C(=O)N[C@H]2CCCCC/C=C\[C@@H]3C[C@@]3(C(=O)NS(=O)(=O)C3CC3)NC(=O)[C@@H]3C[C@@H](Oc4nc5ccccc5c5ccccc45)CN3C2=O)cn1` [Paritaprevir] are 9.7 µM and 35%.
For the compound `C[C@@H](O)[C@H]1C(=O)N2C(C(=O)OCOC(=O)C(C)(C)C)=C(SC3CN(C4=NCCS4)C3)[C@H](C)[C@H]12` [Tebipenem pivoxil], the Ki in assay [3] turned out to be 0.64 µM.
`CN(C)c1ccc2nc3ccc(=[N+](C)C)cc-3sc2c1` [Methylene blue (trihydrate)] came in with a Ki in assay [4] of 19 µM.
Same read-out and setting: for `CCOc1ccc2nc3cc(N)ccc3c(N)c2c1` [Ethacridine (lactate monohydrate)] the value was 14.4 µM; for `CN1Cc2c(Cl)cc(Cl)cc2[C@H](c2cccc(S(=O)(=O)NCCOCCOCCNC(=O)NCCCCNC(=O)NCCOCCOCCNS(=O)(=O)c3cccc([C@@H]4CN(C)Cc5c(Cl)cc(Cl)cc54)c3)c2)C1` [Tenapanor], 24.9 µM; for `Cc1c(-c2ccccc2)oc2c(C(=O)OCCN3CCCCC3)cccc2c1=O` [Flavoxate (hydrochloride)], 33.6 µM.
The same measure, in the same setting: under `CC(=O)OCC1=C(C(=O)O)N2C(=O)[C@@H](NC(=O)CSC(=NC(C)C)NC(C)C)[C@H]2SC1` [Cefathiamidine] stands 23.6 µM; under `O=c1cc(-c2ccccc2)oc2cc(O)c(O)c(O)c12` [Baicalein], 36.8 µM.
Regarding `CCN(CC)CCOc1ccc2c(c1)C(=O)c1cc(OCCN(CC)CC)ccc1-2` [Tilorone (dihydrochloride)], the Ki in assay [1] was 2.9 µM. In addition, the “Relative inhibition (%), activity assay” value in assay [2] was 30%.
Compound `Cc1oc(=O)oc1COC(=O)C1=C([C@H]2CCCO2)S[C@@H]2[C@@H]([C@@H](C)O)C(=O)N12` [Faropenem daloxate] registered an inhibition constant Ki in assay [4] of 13.1 µM.
